Measurements: patent US11938164B2, “Exosome-based cancer assays” (TRUSTEES OF BOSTON UNIVERSITY, priority 2021, dated 2024)

Key:
PD-L1 = experiment: Flow cytometry of PD-L1 on DU145 cells; assay type: cell-based, human; details: MZ-1 50 nM, JQ1 400 nM
Protocol: Single-cell suspensions were washed after collection and stained in ice-cold Ca^+2/Mg^+2-free PBS with a viability dye (Zombie NIR, BioLegend) for 20 min at 4° C. in the dark. Cell suspensions were then washed twice with ice-cold flow cytometry buffer (Ca^+2/Mg^+2-free PBS, supplemented with 2% FBS and 2 mM EDTA). Cell suspensions were then stained for PD-L1 (PE-conjugated, BD Biosciences). All cell suspensions were washed twice in ice cold flow cytometry buffer before analysis. Unstained cells and single-stained controls were used to calculate flow cytometry compensation. Data acquisition (typically 1 million events) was performed on a BD LSRII instrument at the Boston University Flow Cytometry Core Facility. Data analysis was carried out using FlowJo Software (version 10.6.1, Tree Star).

DU145 cells = experiment: RT-PCR of SNAI1 and CD274 in DU145 cells after T2D exosomes plus JQ1 or MZ-1; assay type: cell-based, human; details: MZ-1 50 nM, JQ1 400 nM
Protocol: (FIG. 19A) Expression of SNAI1 and CD274 genes in DU145 cells measured by RT-PCR of cellular RNA after exosome treatment. T2D exosomes (109; T2D Exo) were compared to media only control exosomes (Control), or T2D Exo+JQ1 or MZ1. (JQ1 is a pan-BET inhibitor (400 nM) and MZ-1 is a BRD4-selective degrader (50 nM)). (FIG. 19B) Expression of PD-L1 was measured by flow cytometry after treatments. One million events were analyzed by Flow-Jo and presented as overlaid histograms (control, red trace; experimental, black trace). (FIG. 19C) Flow cytometry data of FIG. 19B were quantified with PD-L1 as percent of parent population. The experiment was conducted in triplicate with differences between means represented as bar graphs. Data were analyzed by two-way ANOVA with statistical significance presented as: ****, P<0.0001 (TGFB, TGF-β positive control at 5 ng/mL for SNAI1 induction; IFNgamma, interferon-γ positive control at 5 ng/mL for CD274 induction).
Procedures were as previously described. Briefly, total RNA was extracted from tumor cells using an RNAeasy Kit (Qiagen). Reverse transcription reactions were performed with 1 μg of total RNA with the QuantiTect Reverse Transcription kit (Qiagen). Gene expression was measured using TaqMan™ master mix (Thermofisher, 4369510) and human gene probes as follows: SNAI (Hs00195591_m1), SNA2 (Hs00950344_m1), CDH1 (Hs01023895_m1), ACTB (Hs00357333_g1), CD274 (encodes PD-L1, Hs01125301_m1), CD155 (encodes PVR or TIGIT ligand, Hs00197846_m1), VIM (Hs00958111_m1), TGFB1 (Hs00998133_m1), and AHNAK (Hs01102463_m1).

4T1 cells = experiment: Transwell migration assay with 4T1 cells; assay type: cell-based, murine; details: 50 nM MZ-1
Protocol: FIGS. 9A-9D depict EMT induction in murine 4T1 cells treated with EVs from IS vs IR murine adipocytes. Murine 3T3-L1 adipocytes were differentiated from pre-adipocyte fibroblasts as published (24), treated with 250 pM murine TNFα overnight, as specified to induce insulin resistance (9), then adipocyte conditioned media was used as the source of EVs. (FIG. 9A) 4T1 cells were treated for 3 days with EVs from IS or IR adipocytes, vs. media control EVs, then cells were fixed for immunohistochemistry. Vimentin and E-cadherin, as mesenchymal or epithelial markers respectively, were visualized by fluorophore-conjugated primary anti-mouse antibodies, with phalloidin stain for cytoskeletal structure and DAPI counterstain for DNA. Bar, 10 μm. (FIG. 9B) RT-PCR validation of two selected EMT genes, induced by EVs. (FIG. 9C) Transwell migration assay with 4T1 cells exposed to IS vs IR EVs, or IR treated with 50 nM MZ-1 (25) to inhibit BRD4 and block migration (18,24). (FIG. 9D) Quantitation of B. (n=3; ***, P<0.005).

BRD2, BRD3 and BRD4 = details: DU145 cells, cited from earlier work
MCF-7 cells = experiment: EMT/CSC gene expression (RT-PCR, PCR array, IPA) in MCF-7 cells treated with adipocyte exosomes; assay type: cell-based, human; details: MCF7 cells; compared to control EVs
Protocol: RNA was isolated from cells using RNeasy Plus Mini Kit (74136, Qiagen). From each sample, 1 μg of RNA was used to prepare 20 μL cDNA using QuantiTect Reverse Transcription Kit (Qiagen, 205313). Human RT2 Profiler™ PCR Array, including Epithelial to Mesenchymal Transition (EMT) (PAHS-090Z) and Cancer Stem Cell (PAHS-176ZC) arrays, were purchased from Qiagen. Each cDNA sample (102 μL comprised of 1 μg RNA) was mixed with 1,350 μL RT2 SYBR Green ROX qPCR Mastermix (Qiagen, 330522) and 1,248 μL RNAse-free water. A total volume of 2,700 μL was mixed by vortexing and transferred to a reservoir. Then, an 8 channel pipettor was used to take aliquots of reaction mix from the reservoir, to distribute 25 μL into each well of the array. PCR reactions were performed and results were analyzed using a 7500 Fast Real-Time PCR instrument.
All Ct values of the genes were normalized to the respective ACTB gene (delta Ct). […] For the control groups, delta.delta Ct was calculated using this formula: ΔΔCt=ΔCt (C1 or C2 or C3)—ΔCt (Control average). Then, fold-change was calculated using 2∧−ΔΔCt, (2 to the power of negative ΔΔCt). Next, the Z score was calculated based on this formula: Z score=(x-mean)/SD, where X is the fold-change. […]
To predict disease and function, and downstream pathways, data were analyzed through the use of Ingenuity Pathway Analysis, IPA (QIAGEN Inc.). […]

In the case of Cc1sc2c(c1C)C(c1ccc(Cl)cc1)=N[C@@H](CC(=O)OC(C)(C)C)c1nnc(C)n1-2 [JQ1], the “PD-L1 surface protein induced by T2D exosome treatment” value (PD-L1) is reported as “inhibited”, the “expression of SNAI1 induced by T2D plasma exosomes” value (DU145 cells) is reported as “not able to reduce expression below the BRD4-selective level” and the “transcription of CD274 induced by T2D plasma exosomes” value (DU145 cells) is reported as “inhibit transcription to below baseline”.
With Cc1ncsc1-c1ccc(CNC(=O)[C@@H]2C[C@@H](O)CN2C(=O)[C@@H](NC(=O)COCCOCCOCCNC(=O)C[C@@H]2N=C(c3ccc(Cl)cc3)c3c(sc(C)c3C)-n3c(C)nnc32)C(C)(C)C)cc1 [MZ-1] the “4T1 migration provoked by exosomes from IR adipocytes” value (4T1 cells) was “effectively ablated”, the “PD-L1 surface protein induced by T2D exosome treatment” value (PD-L1) was “inhibited” and the “expression of SNAI1 induced by T2D plasma exosomes” value (DU145 cells) was “inhibited expression”. For the same compound, the “transcription of CD274 induced by T2D plasma exosomes” value (DU145 cells) was “same inhibitory effect”, the “elimination of BET proteins, low concentration” value (BRD2, BRD3 and BRD4; 50 nM) was “selective to eliminate BRD4 protein while preserving BRD2 and BRD3” and the “elimination of BET proteins, high doses” value (BRD2, BRD3 and BRD4; 400 nM) was “eliminate all three somatic BET proteins”.
In the case of TGF-β, the “transcription of ZEB1 and SNAI2 readout genes” value (MCF-7 cells) is reported as “Induction”.
